Data: patent US10730874B2 (Shire Human Genetic Therapies, Inc., priority 2018, dated 2020)

biological target: human activated kallikrein enzyme (plasma kallikrein) (Homo sapiens (Human), UniProt P03952); test: Inhibition of human activated plasma kallikrein, fluorogenic peptide substrate assay, 500 pM enzyme format; assay type: biochemical; conditions: 500 pM activated kallikrein enzyme, 300 uM Pro-Phe-Arg-7-amido-4-methylcoumarin substrate, 30 min preincubation, 10 min at RT; read-out: Primary Dose Response Assay: Average EC50
Sequence (P03952 391-638): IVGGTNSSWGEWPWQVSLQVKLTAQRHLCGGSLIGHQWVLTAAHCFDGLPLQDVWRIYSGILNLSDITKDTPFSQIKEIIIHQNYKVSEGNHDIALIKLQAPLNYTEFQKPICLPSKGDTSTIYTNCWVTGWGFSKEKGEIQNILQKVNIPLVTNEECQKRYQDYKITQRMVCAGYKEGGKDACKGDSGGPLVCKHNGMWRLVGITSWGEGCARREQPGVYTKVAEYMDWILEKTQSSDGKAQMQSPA
Sequence (P03952 20-390 partner): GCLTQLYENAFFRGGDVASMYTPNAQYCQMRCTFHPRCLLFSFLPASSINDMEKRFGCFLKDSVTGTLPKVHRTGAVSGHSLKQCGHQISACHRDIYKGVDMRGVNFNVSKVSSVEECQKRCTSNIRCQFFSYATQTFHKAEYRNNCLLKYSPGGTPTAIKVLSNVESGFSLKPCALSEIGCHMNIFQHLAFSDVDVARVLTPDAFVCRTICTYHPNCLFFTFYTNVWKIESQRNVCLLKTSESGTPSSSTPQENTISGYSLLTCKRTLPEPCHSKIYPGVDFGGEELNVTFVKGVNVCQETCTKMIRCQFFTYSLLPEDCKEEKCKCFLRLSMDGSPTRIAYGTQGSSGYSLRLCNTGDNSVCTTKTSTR
In short: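 Buffer 20 mM Tris pH 7.5, EDTA, NaCl, PEG-400, Triton X-100; 300 uM Pro-Phe-Arg-AMC; enzyme–inhibitor preincubation 30 min RT. Format one: 500 pM kallikrein, 10 min RT reaction; format two: 5 pM kallikrein, 18 h RT reaction. Fluorescence read at 460 nm (380 nm excitation).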

Row | Structure (SMILES) | EC50
1 | O=C(NCc1ncn2ccc(Cl)c(F)c12)c1cn(Cc2cn3cc(C4CC4)cnc3n2)nn1 [Example I-165, N-((7-chloro-8-fluoroimidazo[1,5-a]pyridin-1-yl)methyl)-1-((6-cyclopropylimidazo[1,2-a]pyrimidin-2-yl)methyl)-1H-1,2,3-triazole-4-carboxamide] | < 1 nM
2 | CCOC(=O)c1cc(C2CC2)cn2cc(Cn3cc(C(=O)NCc4ncn5ccc(Cl)c(F)c45)nn3)nc12 [Example I-166a, ethyl 2-((4-(((7-chloro-8-fluoroimidazo[1,5-a]pyridin-1-yl)methyl)carbamoyl)-1H-1,2,3-triazol-1-yl)methyl)-6-cyclopropylimidazo[1,2-a]pyridine-8-carboxylate] | < 1 nM
3 | O=C(NCc1ncn2ccc(Cl)c(F)c12)c1cn(Cc2cn3cc(C4CC4)cc(C(=O)O)c3n2)nn1 [Example I-166b, 2-((4-(((7-chloro-8-fluoroimidazo[1,5-a]pyridin-1-yl)methyl)carbamoyl)-1H-1,2,3-triazol-1-yl)methyl)-6-cyclopropylimidazo[1,2-a]pyridine-8-carboxylic acid] | < 1 nM
4 | O=C(NCc1ncn2ccc(Cl)c(F)c12)c1cn(Cc2cn3cc(C4CC4)cc(C4(F)COC4)c3n2)nn1 [Example I-167, N-((7-chloro-8-fluoroimidazo[1,5-a]pyridin-1-yl)methyl)-1-((6-cyclopropyl-8-(3-fluorooxetan-3-yl)imidazo[1,2-a]pyridin-2-yl)methyl)-1H-1,2,3-triazole-4-carboxamide] | < 1 nM
5 | CCOC(=O)C(C)(C)Cc1cc(C2CC2)cn2cc(Cn3cc(C(=O)NCc4ncn5ccc(Cl)cc45)nn3)nc12 [Example I-168, ethyl 3-(2-((4-(((7-chloroimidazo[1,5-a]pyridin-1-yl)methyl)carbamoyl)-1H-1,2,3-triazol-1-yl)methyl)-6-cyclopropylimidazo[1,2-a]pyridin-8-yl)-2,2-dimethylpropanoate] | < 1 nM
6 | O=C(NCc1ncn2ccc(Cl)c(F)c12)c1cn(Cc2cn3cc(C4CC4)cc(C4COC4)c3n2)nn1 [Example I-169, N-((7-chloro-8-fluoroimidazo[1,5-a]pyridin-1-yl)methyl)-1-((6-cyclopropyl-8-(oxetan-3-yl)imidazo[1,2-a]pyridin-2-yl)methyl)-1H-1,2,3-triazole-4-carboxamide] | < 1 nM
7 | CC(C)(Cc1cc(C2CC2)cn2cc(Cn3cc(C(=O)NCc4ncn5ccc(Cl)cc45)nn3)nc12)C(=O)O [Example I-170, 3-(2-((4-(((7-chloroimidazo[1,5-a]pyridin-1-yl)methyl)carbamoyl)-1H-1,2,3-triazol-1-yl)methyl)-6-cyclopropylimidazo[1,2-a]pyridin-8-yl)-2,2-dimethylpropanoic acid] | < 1 nM
8 | O=C(NCc1ncn2ccc(Cl)c(F)c12)c1cn(Cc2cn3cc(C4CC4)cc(F)c3n2)nn1 [Example I-171, N-((7-chloro-8-fluoroimidazo[1,5-a]pyridin-1-yl)methyl)-1-((6-cyclopropyl-8-fluoroimidazo[1,2-a]pyridin-2-yl)methyl)-1H-1,2,3-triazole-4-carboxamide] | < 1 nM
9 | O=C(NCc1ncn2ccc(Cl)c(F)c12)c1cn(Cc2cn3cc(C4CC4)cc(N4CCOCC4)c3n2)nn1 [Example I-173, N-((7-chloro-8-fluoroimidazo[1,5-a]pyridin-1-yl)methyl)-1-((6-cyclopropyl-8-morpholinoimidazo[1,2-a]pyridin-2-yl)methyl)-1H-1,2,3-triazole-4-carboxamide] | < 1 nM
10 | O=C(NCc1ncn2ccc(Cl)c(F)c12)c1cn(Cc2cn3cc(C4CC4)cc(-c4nn[nH]n4)c3n2)nn1 [Example I-174, N-((7-chloro-8-fluoroimidazo[1,5-a]pyridin-1-yl)methyl)-1-((6-cyclopropyl-8-(2H-tetrazol-5-yl)imidazo[1,2-a]pyridin-2-yl)methyl)-1H-1,2,3-triazole-4-carboxamide] | < 1 nM
